Several values for one entry are separate records, joined by “and”; a condition that tells them apart may be missing. Equal values may be shown once.
Experiments:
Test in all cases: radiometric filter-binding kinase assay, Kinase HotSpot
Conditions in all cases: compound 0.5 µM; ATP 10 µM
ACVR1 (human) = ACVR1 (human) (UniProt Q04771)
BRSK2 (human) = BRSK2 (human) (UniProt Q8IWQ3)
CAMK1D (human) = CAMK1D (human) (UniProt Q8IU85)
CAMK1G (human) = CAMK1G (human) (UniProt Q96NX5)
CAMK2G (human) = CAMK2G (human) (UniProt Q13555)
CAMK2G (human), sequence (Q13555 whole entry, looked up): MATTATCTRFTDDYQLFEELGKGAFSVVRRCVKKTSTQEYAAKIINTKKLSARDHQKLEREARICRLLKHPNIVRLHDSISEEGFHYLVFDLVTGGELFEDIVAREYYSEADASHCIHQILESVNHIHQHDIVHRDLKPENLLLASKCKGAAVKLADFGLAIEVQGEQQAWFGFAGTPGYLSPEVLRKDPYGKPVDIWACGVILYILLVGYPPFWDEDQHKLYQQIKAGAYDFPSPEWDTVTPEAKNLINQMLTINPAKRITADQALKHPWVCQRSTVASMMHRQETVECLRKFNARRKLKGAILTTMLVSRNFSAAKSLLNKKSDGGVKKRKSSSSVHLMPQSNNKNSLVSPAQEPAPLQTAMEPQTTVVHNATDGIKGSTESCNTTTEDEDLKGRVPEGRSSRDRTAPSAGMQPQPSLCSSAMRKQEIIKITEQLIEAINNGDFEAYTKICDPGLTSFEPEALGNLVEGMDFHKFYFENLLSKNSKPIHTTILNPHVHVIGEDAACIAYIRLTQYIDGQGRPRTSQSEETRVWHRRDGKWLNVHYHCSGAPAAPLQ

CSNK1A1 (human) = CSNK1A1 (human) (UniProt P48729)
DDR2 (human) = DDR2 (human) (UniProt Q16832)
DYRK1B (human) = DYRK1B (human) (UniProt Q9Y463)
DYRK2 (human) = DYRK2 (human) (UniProt Q92630)
EPHA2 (human) = EPHA2 (human) (UniProt P29317)
FGFR3 (human) = FGFR3 (human) (UniProt P22607)
GRK4 (human) = GRK4 (human) (UniProt P32298)
HCK (human) = HCK (human) (UniProt P08631)
HCK (human), sequence (P08631 whole entry, looked up): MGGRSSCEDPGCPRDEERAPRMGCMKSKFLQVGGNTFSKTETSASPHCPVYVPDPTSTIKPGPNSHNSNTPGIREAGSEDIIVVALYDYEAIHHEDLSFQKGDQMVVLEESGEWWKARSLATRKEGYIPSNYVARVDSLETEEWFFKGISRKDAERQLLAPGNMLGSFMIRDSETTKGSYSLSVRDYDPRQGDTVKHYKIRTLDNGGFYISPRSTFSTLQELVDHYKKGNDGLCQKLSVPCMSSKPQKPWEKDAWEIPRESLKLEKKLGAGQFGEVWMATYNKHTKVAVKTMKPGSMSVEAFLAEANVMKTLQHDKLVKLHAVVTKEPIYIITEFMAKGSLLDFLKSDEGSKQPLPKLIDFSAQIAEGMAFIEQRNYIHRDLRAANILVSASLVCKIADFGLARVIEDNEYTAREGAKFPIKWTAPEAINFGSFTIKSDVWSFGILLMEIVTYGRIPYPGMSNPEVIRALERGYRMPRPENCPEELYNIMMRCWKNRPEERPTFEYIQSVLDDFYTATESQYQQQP

HIPK1 (human) = HIPK1 (human) (UniProt Q86Z02)
JAK3 JH1 JH2 (human) = JAK3 JH1 JH2 (human) (UniProt P52333)
JAK3 JH1 JH2 (human), sequence (P52333 whole entry, looked up): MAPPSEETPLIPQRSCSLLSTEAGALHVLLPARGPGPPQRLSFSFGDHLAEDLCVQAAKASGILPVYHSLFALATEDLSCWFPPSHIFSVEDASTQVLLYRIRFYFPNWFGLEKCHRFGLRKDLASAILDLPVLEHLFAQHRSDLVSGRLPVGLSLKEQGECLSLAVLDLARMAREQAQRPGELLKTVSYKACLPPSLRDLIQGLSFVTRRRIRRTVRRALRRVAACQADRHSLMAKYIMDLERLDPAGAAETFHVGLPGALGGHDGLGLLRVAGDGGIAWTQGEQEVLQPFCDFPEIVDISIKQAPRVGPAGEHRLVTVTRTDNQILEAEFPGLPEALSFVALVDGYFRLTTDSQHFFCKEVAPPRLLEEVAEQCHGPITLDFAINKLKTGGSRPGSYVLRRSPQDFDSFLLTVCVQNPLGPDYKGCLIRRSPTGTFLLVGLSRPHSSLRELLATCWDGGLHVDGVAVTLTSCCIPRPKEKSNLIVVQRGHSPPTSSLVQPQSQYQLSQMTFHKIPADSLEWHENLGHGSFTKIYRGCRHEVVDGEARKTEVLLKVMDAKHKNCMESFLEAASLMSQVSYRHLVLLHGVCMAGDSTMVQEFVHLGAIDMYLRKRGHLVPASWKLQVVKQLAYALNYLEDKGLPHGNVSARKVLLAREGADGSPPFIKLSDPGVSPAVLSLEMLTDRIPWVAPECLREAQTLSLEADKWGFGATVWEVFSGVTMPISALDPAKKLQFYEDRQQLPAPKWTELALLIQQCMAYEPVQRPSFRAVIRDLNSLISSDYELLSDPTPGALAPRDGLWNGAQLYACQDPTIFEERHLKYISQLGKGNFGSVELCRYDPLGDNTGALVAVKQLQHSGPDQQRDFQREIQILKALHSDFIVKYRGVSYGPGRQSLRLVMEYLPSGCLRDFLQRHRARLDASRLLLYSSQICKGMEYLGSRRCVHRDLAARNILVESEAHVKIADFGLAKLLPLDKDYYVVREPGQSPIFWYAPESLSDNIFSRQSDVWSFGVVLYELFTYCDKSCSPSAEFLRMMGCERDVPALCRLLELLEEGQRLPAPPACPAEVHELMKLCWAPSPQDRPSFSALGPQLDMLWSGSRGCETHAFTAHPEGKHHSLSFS

MAP3K3 (human) = MAP3K3 (human) (UniProt Q99759)
MAPK12 (human) = MAPK12 (human) (UniProt P53778)
MAPK8 (human) = MAPK8 (human) (UniProt P45983)
MAPKAPK5 (human) = MAPKAPK5 (human) (UniProt Q8IW41)
MARK3 (human) = MARK3 (human) (UniProt P27448)
MET (human) = MET (human) (UniProt P08581)
MINK1 (human) = MINK1 (human) (UniProt Q8N4C8)
MST4 (human) = MST4 (human) (UniProt Q9P289)
NEK1 (human) = NEK1 (human) (UniProt Q96PY6)
NEK11 (human) = NEK11 (human) (UniProt Q8NG66)
NEK7 (human) = NEK7 (human) (UniProt Q8TDX7)
NEK7 (human), sequence (Q8TDX7 whole entry, looked up): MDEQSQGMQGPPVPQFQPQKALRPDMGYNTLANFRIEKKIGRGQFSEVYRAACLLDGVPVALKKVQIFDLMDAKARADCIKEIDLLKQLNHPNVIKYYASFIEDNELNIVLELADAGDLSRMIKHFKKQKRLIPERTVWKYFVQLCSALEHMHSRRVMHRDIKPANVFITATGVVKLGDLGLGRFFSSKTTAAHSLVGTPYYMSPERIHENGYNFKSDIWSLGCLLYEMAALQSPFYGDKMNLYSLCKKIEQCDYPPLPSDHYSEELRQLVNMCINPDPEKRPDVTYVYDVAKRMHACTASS

NLK (human) = NLK (human) (UniProt Q9UBE8)
NTRK1 (human) = NTRK1 (human) (UniProt P04629)
NTRK3 (human) = NTRK3 (human) (UniProt Q16288)
PDGFRA (human) = PDGFRA (human) (UniProt P16234)
PNCK (human) = PNCK (human) (UniProt Q6P2M8)
PRKCZ (human) = PRKCZ (human) (UniProt Q05513)
PRKD1 (human) = PRKD1 (human) (UniProt Q15139)
PRKD2 (human) = PRKD2 (human) (UniProt Q9BZL6)
PRKG1 (human) = PRKG1 (human) (UniProt Q13976)
PTK2 (human) = PTK2 (human) (UniProt Q05397)
RPS6KA1 KD1 KD2 (human) = RPS6KA1 KD1 KD2 (human) (UniProt Q15418)
RPS6KB1 (human) = RPS6KB1 (human) (UniProt P23443)
SLK (human) = SLK (human) (UniProt Q9H2G2)
SRPK3 (human) = SRPK3 (human) (UniProt Q9UPE1)
SRPK3 (human), sequence (Q9UPE1 whole entry, looked up): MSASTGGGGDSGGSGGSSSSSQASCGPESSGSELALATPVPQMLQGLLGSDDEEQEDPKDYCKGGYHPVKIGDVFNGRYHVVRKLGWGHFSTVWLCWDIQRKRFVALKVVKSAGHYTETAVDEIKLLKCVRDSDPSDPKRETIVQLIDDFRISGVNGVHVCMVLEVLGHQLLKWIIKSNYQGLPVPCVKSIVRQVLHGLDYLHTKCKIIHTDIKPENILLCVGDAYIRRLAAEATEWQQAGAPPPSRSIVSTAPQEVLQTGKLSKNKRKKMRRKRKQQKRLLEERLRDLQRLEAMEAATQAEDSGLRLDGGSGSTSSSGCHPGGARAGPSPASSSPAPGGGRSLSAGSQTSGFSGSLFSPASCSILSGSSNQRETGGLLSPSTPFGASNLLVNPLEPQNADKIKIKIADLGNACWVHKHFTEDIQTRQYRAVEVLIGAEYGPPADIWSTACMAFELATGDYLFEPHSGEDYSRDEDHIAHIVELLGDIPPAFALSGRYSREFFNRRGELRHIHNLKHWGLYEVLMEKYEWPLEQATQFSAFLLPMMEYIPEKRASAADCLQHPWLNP

TBK1 (human) = TBK1 (human) (UniProt Q9UHD2)
TBK1 (human), sequence (Q9UHD2 whole entry, looked up): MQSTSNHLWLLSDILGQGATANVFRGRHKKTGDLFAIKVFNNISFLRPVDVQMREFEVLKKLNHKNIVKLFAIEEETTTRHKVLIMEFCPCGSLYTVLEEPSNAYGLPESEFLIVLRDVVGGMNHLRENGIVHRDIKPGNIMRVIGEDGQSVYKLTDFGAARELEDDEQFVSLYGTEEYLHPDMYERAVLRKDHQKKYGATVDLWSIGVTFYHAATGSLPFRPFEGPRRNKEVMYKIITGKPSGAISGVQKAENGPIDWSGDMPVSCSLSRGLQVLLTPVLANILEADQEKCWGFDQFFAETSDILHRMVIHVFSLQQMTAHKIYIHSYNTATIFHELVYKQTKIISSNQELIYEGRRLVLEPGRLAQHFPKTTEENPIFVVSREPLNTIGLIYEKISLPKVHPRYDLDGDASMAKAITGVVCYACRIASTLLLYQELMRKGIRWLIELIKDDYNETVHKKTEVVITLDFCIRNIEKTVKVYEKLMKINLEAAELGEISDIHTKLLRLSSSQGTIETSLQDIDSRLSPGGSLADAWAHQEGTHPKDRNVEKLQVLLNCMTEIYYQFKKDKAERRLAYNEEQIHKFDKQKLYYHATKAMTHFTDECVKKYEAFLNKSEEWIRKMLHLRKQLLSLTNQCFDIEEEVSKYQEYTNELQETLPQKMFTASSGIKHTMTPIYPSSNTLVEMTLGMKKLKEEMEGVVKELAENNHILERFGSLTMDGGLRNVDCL

EPHB3 (human) = EPHB3 (human) (UniProt P54753)

CAMK1D (human), sequence (Q8IU85 whole entry, looked up): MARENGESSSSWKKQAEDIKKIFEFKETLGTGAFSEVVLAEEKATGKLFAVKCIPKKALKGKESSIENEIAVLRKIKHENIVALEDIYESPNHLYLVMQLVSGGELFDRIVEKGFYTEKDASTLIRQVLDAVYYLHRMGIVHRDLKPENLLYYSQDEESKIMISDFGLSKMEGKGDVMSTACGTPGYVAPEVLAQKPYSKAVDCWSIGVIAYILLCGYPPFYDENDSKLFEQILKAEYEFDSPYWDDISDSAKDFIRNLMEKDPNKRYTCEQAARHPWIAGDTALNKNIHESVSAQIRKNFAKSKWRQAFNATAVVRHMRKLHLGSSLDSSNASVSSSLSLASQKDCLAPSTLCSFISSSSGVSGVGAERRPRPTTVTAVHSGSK
ACVR1 (human), sequence (Q04771 whole entry, looked up): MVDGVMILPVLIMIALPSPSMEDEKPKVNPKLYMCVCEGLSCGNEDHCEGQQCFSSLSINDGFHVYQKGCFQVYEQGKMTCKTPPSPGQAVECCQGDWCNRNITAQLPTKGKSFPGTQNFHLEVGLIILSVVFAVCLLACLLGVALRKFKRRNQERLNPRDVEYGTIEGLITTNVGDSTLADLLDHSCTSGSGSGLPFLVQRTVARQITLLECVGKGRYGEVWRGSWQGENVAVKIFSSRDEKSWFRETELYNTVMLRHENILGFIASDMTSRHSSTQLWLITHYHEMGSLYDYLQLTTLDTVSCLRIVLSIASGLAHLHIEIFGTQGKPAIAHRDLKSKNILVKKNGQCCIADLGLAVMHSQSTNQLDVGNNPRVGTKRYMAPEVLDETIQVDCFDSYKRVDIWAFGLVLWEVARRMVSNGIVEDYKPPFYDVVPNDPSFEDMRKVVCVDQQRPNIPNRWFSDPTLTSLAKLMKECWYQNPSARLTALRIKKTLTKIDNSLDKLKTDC

With CS(=O)(=O)CCNCc1ccc(-c2ccc3ncnc(Nc4ccc(OCc5cccc(F)c5)c(Cl)c4)c3c2)o1 the residual activity (ACVR1 (human)) was 106%, the residual activity (BRSK2 (human)) was 106% and the residual activity (CAMK1D (human)) was 104%. It also gave a residual activity (CAMK1G (human)) of 102%, a residual activity (CAMK2G (human)) of 111% and a residual activity (CSNK1A1 (human)) of 104%. The residual activity (DDR2 (human)) was 107%, the residual activity (DYRK1B (human)) was 93.1% and the residual activity (DYRK2 (human)) was 102%. The residual activity (EPHA2 (human)) was 99%, the residual activity (FGFR3 (human)) was 96.7% and the residual activity (GRK4 (human)) was 90.3%. It also gave a residual activity (HCK (human)) of 86.5%, a residual activity (HIPK1 (human)) of 97.1% and a residual activity (JAK3 JH1 JH2 (human)) of 96.2%. The residual activity (MAP3K3 (human)) was 110%, the residual activity (MAPK12 (human)) was 95% and the residual activity (MAPK8 (human)) was 91.9%. The residual activity (MAPKAPK5 (human)) was 92.8%, the residual activity (MARK3 (human)) was 95.9% and the residual activity (MET (human)) was 84.1%. The residual activity (MINK1 (human)) was 111%, the residual activity (MST4 (human)) was 110% and the residual activity (NEK1 (human)) was 71.8%. It also gave a residual activity (NEK11 (human)) of 107%, a residual activity (NEK7 (human)) of 98.7% and a residual activity (NLK (human)) of 108%. For the same compound, the residual activity (NTRK1 (human)) was 99.2%, the residual activity (NTRK3 (human)) was 103% and the residual activity (PDGFRA (human)) was 108%. The residual activity (PNCK (human)) was 98.1%, the residual activity (PRKCZ (human)) was 79.7% and the residual activity (PRKD1 (human)) was 99.4%. For the same compound, the residual activity (PRKD2 (human)) was 86.4%, the residual activity (PRKG1 (human)) was 95.4% and 99.7% and the residual activity (PTK2 (human)) was 104%. The residual activity (RPS6KA1 KD1 KD2 (human)) was 105%, the residual activity (RPS6KB1 (human)) was 95.7% and the residual activity (SLK (human)) was 85.1%. It also gave a residual activity (SRPK3 (human)) of 104% and a residual activity (TBK1 (human)) of 103%.

Work on COc1ccc(Cl)cc1NC(=O)Nc1cc(C)nc2ccccc12 yielded a residual activity (ACVR1 (human)) of 76.2%, a residual activity (BRSK2 (human)) of 95.2% and a residual activity (CAMK1D (human)) of 99.9%. For the same compound, the residual activity (CAMK1G (human)) was 102%, the residual activity (CAMK2G (human)) was 91.6% and the residual activity (CSNK1A1 (human)) was 101%. The residual activity (DDR2 (human)) was 97.7%, the residual activity (DYRK1B (human)) was 99.7% and the residual activity (EPHA2 (human)) was 100%. It also gave a residual activity (FGFR3 (human)) of 96.3%, a residual activity (GRK4 (human)) of 105% and a residual activity (HCK (human)) of 101%. For the same compound, the residual activity (HIPK1 (human)) was 97.2%, the residual activity (JAK3 JH1 JH2 (human)) was 103% and the residual activity (MAP3K3 (human)) was 111%. It also gave a residual activity (MAPK12 (human)) of 101%, a residual activity (MAPK8 (human)) of 104% and a residual activity (MAPKAPK5 (human)) of 89.1%. For the same compound, the residual activity (MARK3 (human)) was 126%, the residual activity (MET (human)) was 96.6% and the residual activity (MINK1 (human)) was 88.7%. It also gave a residual activity (MST4 (human)) of 77.6%, a residual activity (NEK1 (human)) of 96.3% and a residual activity (NEK11 (human)) of 94.6%. The residual activity (NEK7 (human)) was 103%, the residual activity (NLK (human)) was 94.5% and the residual activity (NTRK1 (human)) was 92.5%. It also gave a residual activity (NTRK3 (human)) of 102%, a residual activity (PDGFRA (human)) of 88.5% and a residual activity (PNCK (human)) of 98.7%. The residual activity (PRKCZ (human)) was 99.4%, the residual activity (PRKD1 (human)) was 96.6% and the residual activity (PRKD2 (human)) was 99.8%. For the same compound, the residual activity (PRKG1 (human)) was 108% and 97.5%, the residual activity (PTK2 (human)) was 97.3% and the residual activity (RPS6KA1 KD1 KD2 (human)) was 77.8%. It also gave a residual activity (RPS6KB1 (human)) of 96%, a residual activity (SLK (human)) of 98.8% and a residual activity (SRPK3 (human)) of 104%. It also gave a residual activity (TBK1 (human)) of 100%.

With Cc1cncc2cccc(S(=O)(=O)N3CCCN(C(=O)CN)C[C@H]3C)c12 the residual activity (ACVR1 (human)) was 95.8%, the residual activity (BRSK2 (human)) was 85.4% and the residual activity (CAMK1D (human)) was 104%. For the same compound, the residual activity (CAMK1G (human)) was 94.6%, the residual activity (CAMK2G (human)) was 94% and the residual activity (CSNK1A1 (human)) was 98.9%. The residual activity (DDR2 (human)) was 103%, the residual activity (DYRK1B (human)) was 101% and the residual activity (DYRK2 (human)) was 101%. For the same compound, the residual activity (EPHB3 (human)) was 99.6%, the residual activity (FGFR3 (human)) was 97.7% and the residual activity (GRK4 (human)) was 94%. The residual activity (HCK (human)) was 96.4%, the residual activity (HIPK1 (human)) was 99.1% and the residual activity (JAK3 JH1 JH2 (human)) was 93.1%. It also gave a residual activity (MAP3K3 (human)) of 99.1%, a residual activity (MAPK12 (human)) of 107% and a residual activity (MAPK8 (human)) of 98.8%. For the same compound, the residual activity (MAPKAPK5 (human)) was 94.2%, the residual activity (MARK3 (human)) was 98.9% and the residual activity (MET (human)) was 104%. The residual activity (MINK1 (human)) was 97.2%, the residual activity (MST4 (human)) was 107% and the residual activity (NEK1 (human)) was 100%. For the same compound, the residual activity (NEK11 (human)) was 84.2%, the residual activity (NEK7 (human)) was 103% and the residual activity (NLK (human)) was 99.6%. It also gave a residual activity (NTRK1 (human)) of 100%, a residual activity (NTRK3 (human)) of 87.5% and a residual activity (PDGFRA (human)) of 93.5%. For the same compound, the residual activity (PNCK (human)) was 101%, the residual activity (PRKCZ (human)) was 91.2% and the residual activity (PRKD1 (human)) was 96.7%. The residual activity (PRKD2 (human)) was 96%, the residual activity (PRKG1 (human)) was 78.7% and 85% and the residual activity (PTK2 (human)) was 78%. It also gave a residual activity (RPS6KA1 KD1 KD2 (human)) of 90.4%, a residual activity (RPS6KB1 (human)) of 93.3% and a residual activity (SLK (human)) of 90.4%. It also gave a residual activity (SRPK3 (human)) of 99.9% and a residual activity (TBK1 (human)) of 95.7%.
